“Also recorded” adds a separate entry of the source. No end group written: not given here.

The test system of experiment [1] is human synovial grafts. The experiment can be described thus: Synovial homing of single phage clones in SCID mice transplanted with human synovium. The format is in vivo. The conditions noted are these: 1×10^11 pfu i.v., 15 minutes recirculation; for localization of phage clone to synovial grafts in comparison to strep-clone-1 phage control: SCID mice with human synovium grafts. The method, then: (§1) Selection in vivo of synovial specific phage.
Confirmation of synovial homing specificity in single phage clones displaying consensus motifs. 1×10^11 pfu (200 μL saline fmal volume) of three single phage clones (1.23, 2.10 and 3.1) displaying consensus motifs or the strep-clone-1 phage control were and injected intravenously in separate animals transplanted with human synovium as described in ‘Selection in vivo ofsynovial specific phage’. The number of study and control clone phage localising to synovial grafts was determined as described in the same section.

Experiment [2] deals with human synovial grafts (cognate synovial MVE ligand). The experiment can be described thus: Competitive localisation to human synovial grafts of synthetic biotinylated peptide against parent 3.1 phage clone. The format is in vivo. The conditions noted are these: for effect on graft localisation of the 3.1 phage clone: 50, 250 and 500 μg/mouse with 3.1 phage clone. The procedure: as §1
(§2) Competitive localisation to human synovial grafts of synthetic biotinylated peptide […] against the parent 3.1 phage clone. SCID mice were transplanted with human synovial tissue and injected intravenously, as describe above for the in vivo selection experiments, with 1×10^11 tpfu of 3.1 phage clone in presence or absence of increasing concentrations of the biotinylated CKSTHRDLC synthetic peptide (50, 250 and 500 μg/mouse in 200 μL dose volume) or the biotinylated CGTWSHPQC synthetic peptide control. Controls also included animals injected with 1×10^11 pfu of strep-clone-1 or biotin alone. After 15 minutes circulation time, mice were perfused and the number of phage in the transplants determined as described above. Histological analysis was performed as described below.

Experiment [3] concerns human microvascular endothelium in synovial grafts. Description: Assessment of graft localization of biotinylated peptides (ABC-AP immunohistology). The class given is in vivo. The conditions noted are these: for localisation of biotinylated peptide to synovial grafts (immunoreactivity): 500 μg/mouse with 3.1 phage clone, ABC-AP, Vector Red. The method, then: as §2
Assessment of graft localization of biotinylated peptides. The graft localisation of the biotinylated CKSTHRDLC synthetic peptide was assessed by using the alkaline phosphatase avidin biotin complex (ABC-AP) detection system (Dako, UK) and visualised by Vector Red substrate (Novacastra, UK).

The test system of experiment [4] is human synovial grafts. The conditions noted are these: 1×10^11 pfu i.v., double transplanted RA synovium and skin.
Protocol: Selection in vivo of synovial specific phage. Synovial homing phage were isolated by 3-4 cycles of enrichment in SCID mice transplanted with human tissues at 4-6 weeks of age. Four weeks post-transplantation the pep-PDL library (1×10^11 pfu in 200 μL saline final volume) was injected into the tail vein of anaesthetized animals. After 15 minutes (in vivo phage circulation time), while under deep/terminal anaesthesia (Sagatal, 5 μg/mouse, Rhone Merieux, France) the mice were perfused via the left ventricle with approximately 50-100 mL of saline to ensure phage clearance from the blood pool. Grafts and various mouse organs were then extracted and divided into two aliquots, weighed and processed as necessary for phage recovery and histological analysis. The aliquot assigned for immunohistology was embedded in Optimal Cutting Temperature compound (OCT, Miles, Calif.), snap frozen in liquid nitrogen cooled isopentane (BDH) and stored at −70° C. until analysis. The aliquot used for phage recovery was washed three times in TBS (150 mM NaCl, 50 nm Tris, pH7.4, Sigma, Poole, UK) then homogenized in 1 ml of TBS containing protease inhibitor cocktail (Sigma). […] After a 37° C. overnight incubation the peptide phage, appearing as blue plaques, were counted and the yield of phage localising to each individual tissue determined. […]
For experiment [5], the system named is human synovium and skin grafts (OA patient). The conditions noted are these: OA synovium and skin double transplants, 15 min recirculation.
Protocol: To assess whether the synovial homing properties were due to the intrinsic characteristics of the synovium or related to the disease status (e.g. RA vs OA), pooled clones recovered from the last round of in vivo selection (3rd and 4th round of the experiments described above) were tested in recirculation studies in vivo using SCID animals double transplanted with skin and human synovium from a patient with OA. As previously, equivalent amounts of strep-clone-1 phage were injected intravenously into control animals.
The test system of experiment [6] is murine kidney. Description: Phage recovery from murine kidney in the competitive localisation experiment. The format is in vivo, mouse. The conditions noted are these: with or without study or control peptide. The method, then:
as §1, §2

For the substance CTHSSATQC [1.23], the “localization of phage clone to synovial grafts in comparison to strep-clone-1 phage control” value (“localization of phage clone” below) in experiment [1] is reported as “significantly greater localization”.

Consider “CKSTHDRLC (not fully specified; cysteine pairing not given here; also: biotinylated, site not given here)”, for which the “effect on graft localisation of the 3.1 phage clone” value in experiment [2] is “dramatically inhibits in a dose dependent fashion”. Also, the “inhibition of graft localisation of the parent 3.1 phage clone” value in experiment [2] (at maximal dose (500 μg/mouse i.v.), 15 minutes circulation) is reported as “over 80%”. The “site of peptide binding within synovial grafts (double staining with anti-human vWf-FITC)” value in experiment [3] (500 μg/mouse) is reported as “specific immunoreactivity co-localising with human vasculature; also recorded: binds principally to human microvascular endothelium”. The “localisation of biotinylated peptide to synovial grafts (immunoreactivity)” value in experiment [3] is listed as “strongly localises in vivo to synovial grafts”.

Turning to C-G-T-W-S-H-P-Q-C [strep-clone-1], the “localisation of phage to synovial grafts, skin grafts and mouse kidney” value in experiment [4] is recorded as “comparable low levels of localisation in all three tissues”. Moreover, in experiment [5], the “number of phage recovered from synovial grafts versus skin grafts” value is “virtually the same”.

In the case of CDRLNHQFC [2.10], in experiment [1], the “localization of phage clone” value is “significantly greater localization”.

Take “CGTWSHPQC (cysteine pairing not given here; also: biotinylated, site not given here) [reference compound]”: in experiment [2], the “effect on graft localisation of the 3.1 phage clone” value is “no significant effect”. Moreover, in experiment [3], the “localisation of biotinylated peptide to synovial grafts (immunoreactivity)” value is recorded as “no specific immunoreactivity”.

On to CKSTHDRLC [3.1], for which, in experiment [1], the “increase of synovial graft localization over the control strep-clone-1 phage” value is “approximately 10 fold” and the “localization of phage clone” value is given as “significantly greater localization”. Besides, the “graft localisation relative to strep-clone-1 control” value in experiment [2] (phage alone, 15 minutes circulation) is “approximately nine times more”. Besides, the “level of phage localisation to murine kidney” value in experiment [6] is “only minimal ‘background’ localisation”.

The record behind these values is patent US20050100555A1, “Homing peptides” (KING'S COLLEGE LONDON An Institute Incorporated by Royal …, priority 2001, published 2005).
